Where a name gives a salt, the structure may show the parent alone. Read-outs that look alike come from different tables or passages of the source.
Tests used:
human FLAP = human FLAP (Homo sapiens (Human), UniProt P20292); assay: FLAP binding assay (HTRF format); conditions: HTRF format
Outline: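 Reported data take the mean of two different plates carrying duplicate samples and use the HTRF ratio as the measured signal.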

[1] = test system: leukotriene pathway in human whole blood (LTB4 levels); assay: Human whole blood assay (A23187-stimulated LTB4); type: cell-based; conditions: Homo sapiens, read-out: LTB4 IC50 1:1
Outline: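 Compounds are pre-incubated 15 min at 37° Celsius in RPMI-diluted (1:1) heparinised whole blood before a 30 min A23187 stimulus (7 μg/mL). Plasma LTB4 is read by immunoassay kit, with IC50 calculated from a 4-parameter equation.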

[2] = human whole blood diluted 1:1, A23187-stimulated
[3] = human FLAP wild type, average of two plates, duplicates
[4] = human whole blood diluted 1:1 in RPMI, A23187-stimulated LTB4

human FLAP, sequence (P20292 whole entry): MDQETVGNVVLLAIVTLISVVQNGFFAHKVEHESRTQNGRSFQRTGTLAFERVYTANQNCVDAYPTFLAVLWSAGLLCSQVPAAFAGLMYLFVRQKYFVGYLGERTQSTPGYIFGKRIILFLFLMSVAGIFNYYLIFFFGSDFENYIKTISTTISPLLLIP

Row | Structure (SMILES) | Ki (human FLAP; wild type FLAP) | IC50 [1, 2] | Ki (human FLAP; [3]) | IC50 [1, 4]
1 | CCNS(=O)(=O)c1cc(C(F)(F)F)ccc1-c1cnc(-c2cnc(N)nc2)c(F)c1 [Example 674, 2-[6-(2-Aminopyrimidin-5-yl)-5-fluoropyridin-3-yl]-N-ethyl-5-(trifluoromethyl)benzenesulfonamide] | 2.4 nM | 17.4 nM | – | –
2 | Nc1cnc(-c2ccc(-c3ccccc3-c3cnc(N)nc3)cc2F)cn1 [Example 843, 5-[4′-(5-Aminopyrazin-2-yl)-3′-fluorobiphenyl-2-yl]pyrimidin-2-amine] | 15.6 nM | 44.3 nM | – | –
3 | CS(=O)(=O)c1cc(C(F)(F)F)ccc1-c1ccc(-c2cnc(N)nc2)c(F)c1 [Example 323, 5-[3-Fluoro-2′-(methylsulfonyl)-4′-(trifluoromethyl)biphenyl-4-yl]pyrimidin-2-amine] | – | – | 770 nM | 6640 nM
4 | Nc1cnc(-c2ccc(-c3ccccc3S(=O)(=O)N[C@H]3CCCC[C@@H]3O)cc2F)cn1 (racemic) [Example 120, Racemic-(trans)-4′-(5-Aminopyrazin-2-yl)-3′-fluoro-N-(2-hydroxycyclohexyl)biphenyl-2-sulfonamide] | – | – | 1 nM | 17 nM
5 | CN1CCN(S(=O)(=O)c2cc(C(F)(F)F)ccc2-c2ccc(-c3cnc(N)cn3)c(F)c2)CC1 [Example 212, 5-{3-Fluoro-2′-[(4-methylpiperazin-1-yl)sulfonyl]-4′-(trifluoromethyl)biphenyl-4-yl}pyrazin-2-amine] | – | – | 1 nM | 5 nM
6 | CNS(=O)(=O)Cc1ccccc1-c1ccc(-c2cnc(N)cn2)c(F)c1 [Example 220, 1-[4′-(5-Aminopyrazin-2-yl)-3′-fluorobiphenyl-2-yl]-N-methylmethanesulfonamide formic acid salt] | – | – | 205 nM | 219 nM
7 | Nc1ccc(-c2ccc(-c3ccccc3S(=O)(=O)N3CCOCC3)cc2F)cn1 [Example 660, 5-(3-Fluoro-2′-(morpholinosulfonyl)-[1,1′-biphenyl]-4-yl)pyridin-2-amine] | 83.3 nM | > 10000 nM | – | –
8 | Nc1cnc(-c2ccc(-c3ccccc3S(=O)(=O)NC3CC3)cc2F)cn1 [Example 89, 4′-(5-Aminopyrazin-2-yl)-N-cyclopropyl-3′-fluorobiphenyl-2-sulfonamide] | – | – | 6 nM | 43 nM
9 | Nc1ccc(-c2ccc(-c3ccccc3S(=O)(=O)N3CCCCC3)cc2F)cn1 [Example 345, 5-(3-Fluoro-2′-(piperidin-1-ylsulfonyl)-[1,1′-biphenyl]-4-yl)pyridin-2-amine] | – | – | 28 nM | 259 nM
10 | Nc1ncc(-c2ccc(-c3cccnc3S(=O)(=O)C3CCS(=O)(=O)CC3)cc2F)cn1 [Example 819, 4-((3-(4-(2-aminopyrimidin-5-yl)-3-fluorophenyl)pyridine-2-yl)sulfonyl)tetrahydro-2H-thiopyran 1,1-dioxide] | 40.5 nM | 47.5 nM | – | –
11 | C[C@H](CO)NS(=O)(=O)c1ccccc1-c1ccc(-c2ncc(N)nc2C#N)c(F)c1 [Example 710, 4′-(5-Amino-3-cyanopyrazin-2-yl)-3′-fluoro-N-[(1R)-2-hydroxy-1-methylethyl]biphenyl-2-sulfonamide] | 13.7 nM | 56.5 nM | – | –
12 | Nc1cnc(-c2ccc(-c3ccccc3S(=O)(=O)N3CCCC(CCO)C3)cc2F)cn1 (racemic) [Example 71, racemic-2-(1-{[4′-(5-Aminopyrazin-2-yl)-3′-fluorobiphenyl-2-yl]sulfonyl}piperidin-3-yl)ethanol] | – | – | 2 nM | 23 nM
13 | CC(C)(C)NS(=O)(=O)c1ccccc1-c1ccc(-c2ccn3cnnc3c2)c(F)c1 [Example 444, N-tert-Butyl-3′-fluoro-4′-[1,2,4]triazolo[4,3-a]pyridin-7-ylbiphenyl-2-sulfonamide] | 183 nM | > 10000 nM | – | –
14 | CCCCCCS(=O)(=O)c1ccccc1-c1ccc(-c2cnc(N)cn2)c(F)c1 [Example 198, 5-[3-Fluoro-2′-(hexylsulfonyl)biphenyl-4-yl]pyrazin-2-amine] | – | – | 83 nM | 375 nM

From US9079866B2, “Flap modulators” (JANSSEN PHARMACEUTICA NV, priority 2013, dated 2015)
